In ChEMBL document CHEMBL4673405, “Novel Linker Variants of Antileishmanial/Antitubercular 7-Substituted 2-Nitroimidazooxazines Offer Enhanced Solubility” (ACS Med Chem Lett, 2021):
pIC50: −log10 of the molar value. In brackets after ≈: the same amount, converted by molar mass.

How the values were obtained:
Leishmania infantum = test: Antileishmanial activity against Leishmania infantum MHOM/MA(BE)/67 amastigotes infected in mouse peritoneal macrophages incubated for 5 days by Giemsa staining based assay; assay type: functional, organism-based; settings: MHOM/MA(BE)/67, Peritoneal macrophage, 120 h
MRC5 = test: Cytotoxicity against human MRC5 cells assessed as reduction in cell viability measured after 72 hrs by resazurin assay; assay type: ADME, cell-based; settings: MRC5, 72 h
Leishmania donovani [1] = test: Antileishmanial activity against Leishmania donovani MHOM/ET/67/HU3 amastigotes infected in BALB/c mouse model of visceral leishmaniasis assessed as reduction in parasite burden in liver at 50 mg/kg, po administered once daily for 5 consecutive days starting after 7 days post-infection by microscopic analysis relative to control; assay type: functional; parameters: scale not given: the % may be the effect or the level left; settings: time 5 day
[2] = Microsomal stability in mouse liver microsomes assessed as parent compound remaining at 1 uM measured up to 60 mins in presence of NADPH by LC-MS/MS analysis
[3] = Microsomal stability in human liver microsomes assessed as parent compound remaining at 1 uM measured up to 60 mins in presence of NADPH by LC-MS/MS analysis
[4] = Aqueous solubility of the compound at pH 7 sonicated for 15 mins by HPLC analysis; settings: aqueous medium
[5] = Solubility of the compound in 0.1 M HCl at pH 1 sonicated for 15 mins by HPLC analysis; assay type: physicochemical
Leishmania donovani [6] = test: Antileishmanial activity against Leishmania donovani MHOM/ET/67/HU3 amastigotes infected in po dosed BALB/c mouse model of visceral leishmaniasis assessed as reduction in parasite burden in liver at administered once daily for 5 consecutive days starting after 7 days post-infection by microscopic analysis; assay type: functional; settings: MHOM/ET/67/HU3, po, 120 h, time 5 day
in vivo [7] = settings: BALB/c, mouse, po, 25 mg/kg
Leishmania donovani [8] = test: Antileishmanial activity against Leishmania donovani MHOM/ET/67/HU3 amastigotes infected in BALB/c mouse model of visceral leishmaniasis assessed as reduction in parasite burden in spleen at 50 mg/kg, po administered once daily for 5 consecutive days starting after 7 days post-infection by microscopic analysis relative to control; assay type: functional; parameters: scale not given: the % may be the effect or the level left; settings: time 5 day
[9] = Clearance in BALB/c mouse at 1 mg/kg, iv measured up to 24 hrs by LC-MS/MS analysis; settings: in vivo
[10] = Volume of distribution at steady state in BALB/c mouse at 1 mg/kg, iv measured up to 24 hrs by LC-MS/MS analysis; settings: in vivo
[11] = Initial plasma concentration in BALB/c mouse at 1 mg/kg, iv measured up to 24 hrs by LC-MS/MS analysis
in vivo [12] = settings: BALB/c, mouse, po, 25 mg/kg; remark: listed apart in the source
Description: AUClast in BALB/c mouse at 25 mg/kg, po measured up to 24 hrs by LC-MS/MS analysis

[13] = Half life in BALB/c mouse at 1 mg/kg, iv measured up to 24 hrs by LC-MS/MS analysis; settings: in vivo
[14] = AUClast in BALB/c mouse at 1 mg/kg, iv measured up to 24 hrs by LC-MS/MS analysis; settings: in vivo
Leishmania donovani [15] = test: Antileishmanial activity against Leishmania donovani MHOM/ET/67/HU3 amastigotes infected in BALB/c mouse model of visceral leishmaniasis assessed as reduction in parasite burden in spleen at 25 mg/kg, po administered once daily for 5 consecutive days starting after 7 days post-infection by microscopic analysis relative to control; assay type: functional; parameters: scale not given: the % may be the effect or the level left; settings: time 5 day
in vivo [16] = settings: BALB/c, mouse, po, 25 mg/kg; remark: listed apart in the source
Leishmania donovani [17] = test: Antileishmanial activity against Leishmania donovani MHOM/ET/67/HU3 amastigotes infected in BALB/c mouse model of visceral leishmaniasis assessed as reduction in parasite burden in liver at 25 mg/kg, po administered once daily for 5 consecutive days starting after 7 days post-infection by microscopic analysis relative to control; assay type: functional; parameters: scale not given: the % may be the effect or the level left; settings: time 5 day
[18] = Half life in BALB/c mouse at 25 mg/kg, po measured up to 24 hrs by LC-MS/MS analysis; assay type: ADME, organism-based; settings: in vivo
in vivo [19] = settings: BALB/c, mouse, po, 25 mg/kg; remark: listed apart in the source
Leishmania donovani [20] = test: Antileishmanial activity against Leishmania donovani MHOM/ET/67/HU3 amastigotes infected in BALB/c mouse model of visceral leishmaniasis assessed as reduction in parasite burden in liver at 12.5 mg/kg, po administered once daily for 5 consecutive days starting after 7 days post-infection by microscopic analysis relative to control; assay type: functional; parameters: scale not given: the % may be the effect or the level left; settings: time 5 day

| SMILES | pIC50 (Leishmania infantum) | pIC50 (MRC5) | other results |
| --- | --- | --- | --- |
| O=[N+]([O-])c1cn2c(n1)OC(CNc1ccc(OC(F)(F)F)cc1)CC2 (stereo not given) | 6.82 | ≤ 4.40 |  |
| CN(CC1(C)CCn2cc([N+](=O)[O-])nc2O1)c1ccc(C(F)(F)F)nc1 (stereo not given) | 5.66 | ≤ 4.40 |  |
| O=C(NCC1CCn2cc([N+](=O)[O-])nc2O1)Nc1ccc(OC(F)(F)F)cc1 (stereo not given) | 5.48 | ≤ 4.40 |  |
| CC1(COC(=O)N(Cc2ccc(OC(F)(F)F)cc2)C(=O)NCc2ccc(OC(F)(F)F)cc2)CCn2cc([N+](=O)[O-])nc2O1 (stereo not given) | 5.89 | ≤ 4.40 |  |
| CN(CC1(C)CCn2cc([N+](=O)[O-])nc2O1)c1ccc(Cl)cc1 (stereo not given) | 6.51 | ≤ 4.40 |  |
| O=C(NCC1CCn2cc([N+](=O)[O-])nc2O1)c1ccc(OC(F)(F)F)cc1 (stereo not given) | 5.82 | ≤ 4.40 |  |
| CC1(COc2ccc(Cl)cc2)CCn2cc([N+](=O)[O-])nc2O1 (stereo not given) | 6.89 | ≤ 4.40 |  |
| O=C(NCc1ccc(OC(F)(F)F)cc1)N(Cc1ccc(OC(F)(F)F)cc1)C(=O)OCC1CCn2cc([N+](=O)[O-])nc2O1 (stereo not given) | 6.10 | ≤ 4.40 |  |
| CC1(COC(=O)Nc2ccccc2OC(F)(F)F)CCn2cc([N+](=O)[O-])nc2O1 (stereo not given) | 6.19 | ≤ 4.40 |  |
| CC1(CNc2ccc(Cl)cc2)CCn2cc([N+](=O)[O-])nc2O1 (stereo not given) | 6.54 | ≤ 4.40 |  |
| O=C(Nc1ccc(OC(F)(F)F)cc1)OCC1CCn2cc([N+](=O)[O-])nc2O1 (stereo not given) | 6.44 | ≤ 4.40 | Tmax at 24 h (in vivo [7]): 1 h; clearance at 24 h [9]: 14 mL/min/kg; Vd at 24 h [10]: 1.6 L/kg; C0 at 24 h [11]: 740 ng/mL; AUC(0-t) at 24 h (in vivo [12]): 35400 ng·h/mL; half-life at 24 h [13]: 1.2 h; AUC(0-t) at 24 h [14]: 1170 ng·h/mL; bioavailability at 24 h (in vivo [16]): 100%; half-life [18]: 1.6 h; Cmax at 24 h (in vivo [19]): 9600 ng/mL; solubility at 0.25 h [4]: 4.5 µg/mL (≈ 11.2 µM) |
| CC1(CNc2ccc(F)cc2)CCn2cc([N+](=O)[O-])nc2O1 (stereo not given) | 6.03 | ≤ 4.40 |  |
| CN(CC1CCn2cc([N+](=O)[O-])nc2O1)c1ccc(OC(F)(F)F)cc1 (stereo not given) | 6.66 | ≤ 4.40 |  |
| CN(CC1(C)CCn2cc([N+](=O)[O-])nc2O1)c1ccc(F)cc1 (stereo not given) | 6.32 | ≤ 4.40 |  |
| CC1(COc2ccc(F)cc2)CCn2cc([N+](=O)[O-])nc2O1 (stereo not given) | 6.35 | ≤ 4.40 |  |
| CC1(COc2ccc(OC(F)(F)F)cc2)CCn2cc([N+](=O)[O-])nc2O1 (stereo not given) |  |  | Activity (Leishmania donovani [17]): 100%; Activity (Leishmania donovani [20]): 100% |

Continued, in another order:

| pIC50 (Leishmania infantum) | SMILES | pIC50 (MRC5) | other results |
| --- | --- | --- | --- |
| 6.52 | CC1(COCc2ccc(OC(F)(F)F)cc2)CCn2cc([N+](=O)[O-])nc2O1 (stereo not given) | ≤ 4.40 |  |
| 5.85 | CC1(CNC(=O)Nc2ccc(OC(F)(F)F)cc2)CCn2cc([N+](=O)[O-])nc2O1 (stereo not given) | ≤ 4.40 | Activity (Leishmania donovani [1]): 36%; remaining at 1 h, 1 µM [2]: 39%; remaining at 1 h, 1 µM [3]: 54%; solubility at 0.25 h [4]: 121 µg/mL (≈ 291 µM) |
| 5.74 | CC1(CNC(=O)NCc2ccc(OC(F)(F)F)cc2)CCn2cc([N+](=O)[O-])nc2O1 (stereo not given) | ≤ 4.40 |  |
| 5.66 | CC1(CNS(=O)(=O)c2ccc(OC(F)(F)F)cc2)CCn2cc([N+](=O)[O-])nc2O1 (stereo not given) | ≤ 4.40 |  |
| 6.89 | CC1(CNCc2ccc(OC(F)(F)F)cc2)CCn2cc([N+](=O)[O-])nc2O1 (stereo not given) | ≤ 4.40 | solubility at 0.25 h [5]: 33000 µg/mL (≈ 85400 µM); solubility at 0.25 h [4]: 124 µg/mL (≈ 321 µM) |
| 6.44 | CC1(COC(=O)Nc2ccc(OC(F)(F)F)cc2)CCn2cc([N+](=O)[O-])nc2O1 (stereo not given) | ≤ 4.40 | ED50 (Leishmania donovani [6]): 16 mg/kg; Activity (Leishmania donovani [1]): >99%; Tmax at 24 h (in vivo [7]): 0.75 h; Activity (Leishmania donovani [8]): 100%; clearance at 24 h [9]: 8.5 mL/min/kg; Vd at 24 h [10]: 1.2 L/kg; C0 at 24 h [11]: 800 ng/mL; AUC(0-t) at 24 h (in vivo [12]): 57800 ng·h/mL; half-life at 24 h [13]: 1.3 h; AUC(0-t) at 24 h [14]: 2070 ng·h/mL; Activity (Leishmania donovani [15]): 96%; bioavailability at 24 h (in vivo [16]): 100%; Activity (Leishmania donovani [17]): 97%; half-life [18]: 1.7 h; Cmax at 24 h (in vivo [19]): 13500 ng/mL; Activity (Leishmania donovani [20]): 7%; solubility at 0.25 h [4]: 11 µg/mL (≈ 26.4 µM) |
| 5.85 | CC1(CNC(=O)c2ccc(OC(F)(F)F)cc2)CCn2cc([N+](=O)[O-])nc2O1 (stereo not given) | ≤ 4.40 | Activity (Leishmania donovani [1]): 71%; solubility at 0.25 h [4]: 78 µg/mL (≈ 195 µM) |
| 5.70 | CC1(CNS(=O)(=O)c2cccc(OC(F)(F)F)c2)CCn2cc([N+](=O)[O-])nc2O1 (stereo not given) | ≤ 4.40 |  |
| 6.31 | CC1(COCC(=O)Nc2ccc(OC(F)(F)F)cc2)CCn2cc([N+](=O)[O-])nc2O1 (stereo not given) | ≤ 4.40 |  |
| 6.49 | CC1(COC(=O)NCc2ccc(OC(F)(F)F)cc2)CCn2cc([N+](=O)[O-])nc2O1 (stereo not given) | ≤ 4.40 | solubility at 0.25 h [4]: 117 µg/mL (≈ 272 µM) |
| 5.77 | CC1(CNC(=O)COc2ccc(OC(F)(F)F)cc2)CCn2cc([N+](=O)[O-])nc2O1 (stereo not given) | ≤ 4.40 |  |
| 6.70 | C[C@@]1(COC(=O)Nc2ccc(OC(F)(F)F)cc2)CCn2cc([N+](=O)[O-])nc2O1 | ≤ 4.40 | Activity (Leishmania donovani [17]): 51%; Activity (Leishmania donovani [20]): 31%; solubility at 0.25 h [4]: 7.9 µg/mL (≈ 19 µM) |
| 6.74 | O=C(NCc1ccc(OC(F)(F)F)cc1)OCC1CCn2cc([N+](=O)[O-])nc2O1 (stereo not given) | ≤ 4.40 |  |
| 5.00 | CC1(CNC(=O)c2ccccc2OC(F)(F)F)CCn2cc([N+](=O)[O-])nc2O1 (stereo not given) | ≤ 4.40 |  |
| 6.57 | CN(CC1(C)CCn2cc([N+](=O)[O-])nc2O1)c1ccc(OC(F)(F)F)cc1 (stereo not given) | ≤ 4.40 | Activity (Leishmania donovani [1]): 58%; solubility at 0.25 h [5]: 4.6 µg/mL (≈ 11.9 µM); solubility at 0.25 h [4]: 1.5 µg/mL (≈ 3.88 µM) |
| 6.80 | CC1(CNC(=O)OCc2ccc(OC(F)(F)F)cc2)CCn2cc([N+](=O)[O-])nc2O1 (stereo not given) | ≤ 4.40 | solubility at 0.25 h [4]: 28 µg/mL (≈ 65.1 µM) |
| 5.70 | CC1(CNC(=O)Cc2ccc(OC(F)(F)F)cc2)CCn2cc([N+](=O)[O-])nc2O1 (stereo not given) | ≤ 4.40 |  |
| 5.89 | CC1(CNC(=O)c2cccc(OC(F)(F)F)c2)CCn2cc([N+](=O)[O-])nc2O1 (stereo not given) | ≤ 4.40 | remaining at 1 h, 1 µM [2]: 36%; remaining at 1 h, 1 µM [3]: 58%; solubility at 0.25 h [4]: 14 µg/mL (≈ 35 µM) |
